Data: patent US20190352276A1, “INHIBITORS OF BRUTON'S TYROSINE KINASE” (Joint Stock Company "Biocad", priority 2016, published 2019)

Experiments:
[1] = Chemical stability in artificial gastric fluid (SGF without enzymes); settings: 10 μM in SGF without enzymes, pH=1.4, 37° C.
Protocol: The initial candidate solution (10 mM in DMSO) was diluted with the working solution of SGF to the concentration of 10 μm (test solution). The test solution was incubated in a dry block heater at 37° C. We determined peak areas of the compounds corresponding to the start of the test (before incubating) and the end of the test (after incubating in a dry block heater at 37° C.) by HPLC using Agilent1200 chromatograph (Agilent, USA). We used gradient elution (1 mL/min flow rate). We determined amount of substance in the sample in % after incubation.
We evaluated the stability of the compounds.

[2] = test system: Mino (mantle cell lymphoma); experiment: Antiproliferative activity, Mino cells (Alamar Blue); assay type: cell-based; settings: Homo sapiens
Protocol: (§1) Antiproliferative activity of BTK inhibitors was measured in cell-based bioassay on B-cells cultures: Mino (mantle cell lymphoma, ATCC® CRL-3000™), Z-138 (mantle cell lymphoma, ATCC® CRL-3001™) and DOHH2 (follicular lymphoma, Creative Bioarray CSC-C0219) using cell viability reagent Alamar Blue (Invitrogen, #DAL 1100). Cells were cultured in 10% FB S-supplemented (HyClone, #SH3008803/Gibco, #16140-071) RPMI-1640 (PanEco, #S330p) for at least 1 passage after thawing, washed with PBS and passaged in 96-well culture plates (Corning, #3599) with growth medium with 10% FBS (HyClone, #SH3008803/Gibco, #16140-071) and antibiotic (50 μg/ml of gentamicin (Biolot, #1.3.16))≈3*10^4 cells in 50 μl of medium per well.
(§2) The compounds were dissolved in DMSO and diluted with the assay medium to final concentrations ranging from […]. 150 μl of each diluted compound were then added to each well (final concentration of DMSO was less than 1%) and incubated at 37° C. in an incubator under 5% of CO2 for 72 h. After incubation, 20 μl of Alamar Blue reagent (Invitrogen, #DAL1100) were added to each well. The plates were shaked on an orbital shaker (Biosan, Latvia) and then incubated for 14-16 hours at 37° C. in the incubator.
(§3) The number of living cells were estimated, measuring the fluorescence signal at the excitation wavelength (REx) of 540 nm and the emission wavelength (λEm) of 590 nm on a microplate reader (Tecan Infinite M200Pro, Switzerland).
(§4) For each compound, IC50 was calculated using Magellan 7.2 software (Tecan, Switzerland) approximating experimental points by four-parameter logistic model with the optimization by Levenberg-Marquardt.

[3] = test system: Z-138 (mantle cell lymphoma); experiment: Antiproliferative activity, Z-138 cells (Alamar Blue); assay type: cell-based; settings: Homo sapiens
Protocol: as §1, §2, §3, §4

[4] = test system: HepG2 cells (hepatocellular carcinoma); experiment: General cytotoxicity on HepG2 cells (CC50; therapeutic index CC50 HepG2/IC50 Mino); assay type: cell-based; settings: therapeutic index
Protocol: (§5) The CC50 values were determined in the test for General cytotoxicity on HepG2 cells (hepatocellular carcinoma, ATCC® HB-8065™). 2*10^4 cells (in 50 μl) per well were seeded in 96-well plates (Corning, #3599) in DMEM medium (PanEco, #S420p), after 24 h of incubation 150 μl of candidate compounds were added to each well in the range of final concentrations from 200 μM to 4 μM and the plate was incubated in a total volume of 200 μl for 72 hours. Viability of the cells was assessed using Alamar Blue dye (Invitrogen, #DAL 1100). CC50 was determined similarly (table 10).
(§6) The relationship between toxic (CC50) and a therapeutic (IC50) effects of the dose is the therapeutic index, which can be expressed as the ratio between CC50 (HepG2) (general cytotoxicity of the candidate) and IC50 (Mino) (antiproliferative activity on the target cells): […]

[5] = as above; assay type: cell-based; settings: human, HepG2 cells (hepatocellular carcinoma), 72 hours, Alamar Blue
Protocol: as §5, §6

[6] = Table 10, 72 h, average of several tests
[7] = Table 10, average of several tests

C=CC(=O)N1CC(n2nc(-c3ccc(Oc4ccncc4)cc3)c3cncc(Cl)c32)C1 [BCD-BTK - 282, 1-(3-(7-chloro-3-(4-(pyridin-4-yloxy)phenyl)-1H-pyrazolo[4,3-c]pyridin-1-yl)azetidin-1-yl)prop-2-en-1-one]
Amount of substance in the sample in % (chemical stability) [1]: 100%

CC#CC(=O)N1CC[C@@H](Cn2nc(-c3ccc(C(=O)Nc4ccccn4)cc3)c3cncc(Cl)c32)C1 [BCD-BTK - 286, (R)-4-(1-((1-(but-2-ynoyl)pyrrolidin-3-yl)methyl)-7-chloro-1H-pyrazolo[4,3-c]pyridin-3-yl)-N-(pyridin-2-yl)benzamide]
Amount of substance in the sample in % (chemical stability) [1]: 100%

CC#CC(=O)N1CC[C@H](Cn2nc(-c3ccc(C(=O)Nc4ccccn4)cc3)c3cncc(Cl)c32)C1 [BCD-BTK - 287, (S)-4-(1-((1-(but-2-ynoyl)pyrrolidin-3-yl)methyl)-7-chloro-1H-pyrazolo[4,3-c]pyridin-3-yl)-N-(pyridin-2-yl)benzamide]
Amount of substance in the sample in % (chemical stability) [1]: 100%

C=CC(=O)N1CCC[C@@H](n2nc(-c3cnc(C(=O)Nc4cc(C(F)(F)CCC)ccn4)nc3)c3cncc(Cl)c32)C1 [BCD-BTK - 292, (R)-5-(1-(1-acryloylpiperidin-3-yl)-7-chloro-1H-pyrazolo[4,3-c]pyridin-3-yl)-N-(4-(1,1-difluorobutyl)pyridin-2-yl)pyrimidine-2-carboxamide]
Amount of substance in the sample in % (chemical stability) [1]: 100%

C=CC(=O)N1CCC[C@@H](n2nc(-c3cnc(C(=O)Nc4cc(C(F)(F)CC)ccn4)nc3)c3cncc(Cl)c32)C1 [BCD-BTK - 293, (R)-5-(1-(1-acryloylpiperidin-3-yl)-7-chloro-1H-pyrazolo[4,3-c]pyridin-3-yl)-N-(4-(1,1-difluoropropyl)pyridin-2-yl)pyrimidine-2-carboxamide]
Amount of substance in the sample in % (chemical stability) [1]: 98.4%

CC#CC(=O)N1CCC[C@@H](n2nc(-c3ccc(C(=O)Nc4ccccn4)cc3)c3c(N)ncc(Cl)c32)C1 [BCD-BTK - 295, (R)-4-(4-amino-1-(1-(but-2-ynoyl)piperidin-3-yl)-7-chloro-1H-pyrazolo[4,3-c]pyridin-3-yl)-N-(pyridin-2-yl)benzamide]
Amount of substance in the sample in % (chemical stability) [1]: 89.5%

C=CC(=O)N1CCC[C@@H](n2nc(-c3ccc(-n4ccc(=O)cc4)cc3)c3c(N)ncc(Cl)c32)C1 [BCD-BTK-9, (R)-1-(4-(1-(1-acryloylpiperidin-3-yl)-4-amino-7-chloro-1H-pyrazolo[4,3-c]pyridin-3-yl)phenyl)pyridin-4(1H)-one]
IC50 [2, 6]: 23.5 µM
Amount of substance in the sample in % (chemical stability) [1]: 100.0%
IC50 [3, 6]: 44.1 µM
CC50 (HepG2)/IC50 (Mino) ([4]; Table 10): >4.25
CC50 at 72 h [5, 7]: > 100 µM

C=CC(=O)N1CCC[C@@H](n2nc(-c3ccc(-n4ccc(=O)cc4)cc3)c3c(Cl)c(O)cnc32)C1 [BCD-BTK-13, (R)-1-(4-(1-(1-acryloylpiperidin-3-yl)-4-chloro-5-hydroxy-1H-pyrazolo[3,4-b]pyridin-3-yl)phenyl)pyridin-4(1H)-one]
IC50 [2, 6]: 37.1 µM
Amount of substance in the sample in % (chemical stability) [1]: 91.0%
IC50 [3, 6]: > 50 µM
CC50 (HepG2)/IC50 (Mino) ([4]; Table 10): >2.70
CC50 at 72 h [5, 7]: > 100 µM

C=CC(=O)N1CCC[C@@H](n2nc(-c3ccc(-n4ccc(=O)cc4)cc3)c3cncc(Cl)c32)C1 [BCD-BTK-30, (R)-1-(4-(1-(1-acryloylpiperidin-3-yl)-7-chloro-1H-pyrazolo[4,3-c]pyridin-3-yl)phenyl)pyridin-4(1H)-one]
IC50 [2, 6]: 15.6 µM
Amount of substance in the sample in % (chemical stability) [1]: 97.7%
IC50 [3, 6]: 22.7 µM
CC50 (HepG2)/IC50 (Mino) ([4]; Table 10): 3.94
CC50 at 72 h [5, 7]: 61.5 µM

C=CC(=O)N1CCC[C@@H](n2nc(-c3ccc(C(=O)Nc4cccc(F)n4)cc3)c3cncc(Cl)c32)C1 [BCD-BTK-225, (R)-4-(1-(1-acryloylpiperidin-3-yl)-7-chloro-1H-pyrazolo[4,3-c]pyridin-3-yl)-N-(6-fluoropyridin-2-yl)benzamide]
Amount of substance in the sample in % (chemical stability) [1]: 100%

C=CC(=O)N1CCC[C@@H](n2nc(-c3ccc(C(=O)Nc4ccc(F)cn4)cc3)c3cncc(C#N)c32)C1 [BCD-BTK-227, (R)-4-(1-(1-acryloylpiperidin-3-yl)-7-cyano-1H-pyrazolo[4,3-c]pyridin-3-yl)-N-(5-fluoropyridin-2-yl)benzamide]
Amount of substance in the sample in % (chemical stability) [1]: 100%

C=CC(=O)N1CCC[C@@H](n2nc(-c3ccc(C(=O)Nc4cc(C(F)(F)F)ccn4)cc3)c3cncc(F)c32)C1 [BCD-BTK-245, (R)-4-(1-(1-acryloylpiperidin-3-yl)-7-fluoro-1H-pyrazolo[4,3-c]pyridin-3-yl)-N-(4-(trifluoromethyl)pyridin-2-yl)benzamide]
Amount of substance in the sample in % (chemical stability) [1]: 100%

C=CC(=O)N1CCC[C@@H](n2nc(-c3ccc(C(=O)Nc4ncccc4F)cc3)c3cncc(F)c32)C1 [BCD-BTK-249, (R)-4-(1-(1-acryloylpiperidin-3-yl)-7-fluoro-1H-pyrazolo[4,3-c]pyridin-3-yl)-N-(3-fluoropyridin-2-yl)benzamide]
IC50 [2, 6]: 28.8 µM
IC50 [3, 6]: > 50 µM
CC50 (HepG2)/IC50 (Mino) ([4]; Table 10): >3.47
CC50 at 72 h [5, 7]: ~100 µM

CC#CC(=O)N1CC[C@@H](n2nc(-c3ccc(C(=O)Nc4ccccn4)cc3)c3cncc(Cl)c32)C1 [BCD-BTK-262, (R)-4-(1-(1-(but-2-ynoyl)pyrrolidin-3-yl)-7-chloro-1H-pyrazolo[4,3-c]pyridin-3-yl)-N-(pyridin-2-yl)benzamide]
Amount of substance in the sample in % (chemical stability) [1]: 100%

CC#CC(=O)N1CC[C@H](n2nc(-c3ccc(C(=O)Nc4ccccn4)cc3)c3cncc(Cl)c32)C1 [BCD-BTK-271, (S)-4-(1-(1-(but-2-ynoyl)pyrrolidin-3-yl)-7-chloro-1H-pyrazolo[4,3-c]pyridin-3-yl)-N-(pyridin-2-yl)benzamide]
Amount of substance in the sample in % (chemical stability) [1]: 100%

C=CC(=O)N1CC[C@@H](n2nc(-c3ccc(C(=O)Nc4ccccn4)cc3)c3cncc(Cl)c32)C1 [BCD-BTK-275, (R)-4-(1-(1-acryloylpyrrolidin-3-yl)-7-chloro-1H-pyrazolo[4,3-c]pyridin-3-yl)-N-(pyridin-2-yl)benzamide]
Amount of substance in the sample in % (chemical stability) [1]: 100%

C=CC(=O)N1CC(Cn2nc(-c3ccc(C(=O)Nc4ccccn4)cc3)c3cncc(Cl)c32)C1 [BCD-BTK-276, 4-(7-chloro-1-{[1-(prop-2-enoyl)azetidin-3-yl]methyl}-1H-pyrazolo[4,3-c]pyridin-3-yl)-N-(pyridin-2-yl)benzamide]
Amount of substance in the sample in % (chemical stability) [1]: 100%

C=CC(=O)N1CCC[C@@H](Cn2nc(-c3ccc(C(=O)Nc4ccccn4)cc3)c3cncc(Cl)c32)C1 [BCD-BTK-279, (R)-4-(1-((1-acryloylpiperidin-3-yl)methyl)-7-chloro-1H-pyrazolo[4,3-c]pyridin-3-yl)-N-(pyridin-2-yl)benzamide]
Amount of substance in the sample in % (chemical stability) [1]: 100%

CC#CC(=O)N1CC(n2nc(-c3ccc(Oc4ccncc4)cc3)c3cncc(Cl)c32)C1 [BCD-BTK-281, 1-(3-(7-chloro-3-(4-(pyridin-4-yloxy)phenyl)-1H-pyrazolo[4,3-c]pyridin-1-yl)azetidin-1-yl)but-2-yn-1-one]
IC50 [2, 6]: 5.63 µM
IC50 [3, 6]: 4.67 µM
CC50 (HepG2)/IC50 (Mino) ([4]; Table 10): 2.81
CC50 at 72 h [5, 7]: 15.8 µM

C=CC(=O)N1CC(n2nc(-c3ccc(Oc4ccncc4)cc3)c3cncc(Cl)c32)C1 [BCD-BTK-282, 1-(3-(7-chloro-3-(4-(pyridin-4-yloxy)phenyl)-1H-pyrazolo[4,3-c]pyridin-1-yl)azetidin-1-yl)prop-2-en-1-one]
IC50 [2, 6]: 4.02 µM
IC50 [3, 6]: 4.3 µM
CC50 (HepG2)/IC50 (Mino) ([4]; Table 10): 2.35
CC50 at 72 h [5, 7]: 9.45 µM

C=CC(=O)N1CCC[C@@H](n2nc(-c3ccc(Oc4ccccc4)cc3)c3c(N)ncnc32)C1 [Ibrutinib, ibrutinib, reference compound]
IC50 ([2]; Table 11, 72 h): 9.18 µM
IC50 ([3]; Table 11, 72 h): 15.1 µM
CC50 (HepG2)/IC50 (Mino) ([4]; Table 11): 5.98
CC50 at 72 h ([5]; Table 11): 54.9 µM
